The source of these data is ChEMBL document CHEMBL3600367, “Anti-plasmodial activity of bradykinin and analogs” (Bioorg Med Chem Lett, 2015).

In one data set the test system is Plasmodium gallinaceum. Description: Antiplasmodial activity against mature Plasmodium gallinaceum sporozoites isolated from Aedes aegypti RED assessed as increase in membrane permeability at 60 umol/L after 1 hr by propidium iodide staining-based inverted fluorescence microscopic analysis. Format: functional.
The test system of another data set is Plasmodium falciparum. Description: Antiplasmodial activity against Plasmodium falciparum W2 schizonts infected in human erythrocytes assessed as appearance of intracellular ring forms at 10^-8 mol/L after 24 hrs by Diff quick staining-based light microscopic analysis. Type of data set: functional, organism-based.
Data set [1] can be described thus: Metabolic stability in plasma (unknown origin). Type of data set: ADME, cell-free.

The source made the active and inactive calls. No cut-off for these calls is given here. Residues, ends and D or L forms follow the SMILES beside them.

For `N=C(N)NCCC[C@H](NC(=O)[C@H](Cc1ccccc1)NC(=O)[C@@H]1CCCN1C(=O)[C@H](CO)NC(=O)[C@H](Cc1ccccc1)NC(=O)CNC(=O)[C@@H]1CCCN1C(=O)[C@@H]1CCCN1C(=O)[C@@H](N)CCCNC(=N)N)C(=O)O` [BRADYKININ] (H-RPPGFSPFR-OH), the Activity in the data set on Plasmodium gallinaceum was found to be 98%. In addition, the result in the data set with Plasmodium falciparum was inactive.

Turning to `CC(C)C[C@@H](NC(=O)[C@H]1CCCN1C(=O)[C@H](NC(=O)[C@@H](CCCNC(=N)N)NC(=O)[C@@H](CO)NC(=O)[C@@H](Cc1ccccc1)NC(=O)[C@@H](CO)NC(=O)[C@H]1CCCN1C(=O)[C@@H](CC(C)C)NC(=O)[C@H](N)CCCNC(=N)N)C(C)C)C(=O)NCC(=O)N1CCC[C@@H]1C(=O)N1CCC[C@@H]1C(=O)N[C@H](CCCNC(=N)N)C(N)=O`, in the data set on Plasmodium falciparum, the result was inactive. The Stability result in data set [1] is listed as “Stable”.

With `CC[C@H](C)[C@H](NC(=O)[C@H](Cc1ccc(O)cc1)NC(=O)[C@@H](NC(=O)[C@H](CCCNC(=N)N)NC(=O)[C@@H](N)CC(=O)O)C(C)C)C(=O)N[C@@H](Cc1cnc[nH]1)C(=O)N1CCC[C@H]1C(=O)N[C@@H](Cc1ccccc1)C(=O)O` [ANGIOTENSIN II], the Activity with Plasmodium gallinaceum is listed as 88%.

For the compound `CC(C)C[C@H](NC(=O)[C@@H]1CCCN1C(=O)[C@H](CO)NC(=O)[C@H](CCC(=O)O)NC(=O)[C@H](Cc1ccccc1)NC(=O)[C@H](CCCNC(=N)N)NC(=O)[C@@H](NC(=O)[C@@H]1CCCN1C(=O)[C@H](CC(C)C)NC(=O)CNC(=O)[C@@H]1CCCN1C(=O)[C@@H](N)CCCNC(=N)N)C(C)C)C(N)=O` (H-RPGLPVRFESPL-NH2), the result in the data set with Plasmodium gallinaceum and with Plasmodium falciparum was inactive.

For `CC(C)C[C@H](NC(=O)[C@@H]1CCCN1C(=O)[C@H](CO)NC(=O)[C@H](Cc1ccccc1)NC(=O)[C@H](CO)NC(=O)[C@H](CCCNC(=N)N)NC(=O)[C@@H](NC(=O)[C@@H]1CCCN1C(=O)[C@H](CC(C)C)NC(=O)CNC(=O)[C@@H]1CCCN1C(=O)[C@@H]1CCCN1C(=O)[C@@H](N)CCCNC(=N)N)C(C)C)C(=O)N[C@@H](CCCNC(=N)N)C(N)=O` (H-RPPGLPVRSFSPLR-NH2), the outcome in the data set on Plasmodium gallinaceum was Active. For the same compound, the result in the data set with Plasmodium falciparum was inactive.

On to `CC(C)C[C@@H](N)C(=O)N1CCC[C@@H]1C(=O)N[C@H](CO)C(=O)N[C@H](CCC(=O)O)C(=O)N[C@H](Cc1ccccc1)C(=O)N[C@H](CCCNC(=N)N)C(=O)N[C@@H](C(=O)N1CCC[C@@H]1C(=O)N[C@H](CC(C)C)C(=O)NCC(=O)N1CCC[C@@H]1C(=O)N[C@H](CCCNC(=N)N)C(N)=O)C(C)C`, for which the result with Plasmodium gallinaceum was Active. In the data set with Plasmodium falciparum, the result was inactive. Further, the Stability result in data set [1] is on record as “Stable”.
